# Measured values published in patent US10231979B2, “Modulation of inflammation using progesterone metabolites” (Indiana University Research and Technology Corporation, priority 2015, dated 2019).
# Read-outs that look alike come from different tables or passages of the source.
# Tests used:
# [1] = tested on: CYP3A
# [2] = tested on: THP-1 monocytes; assay: IL-6 production in THP-1 monocytes stimulated with LPS; format: cell-based; conditions: THP-1 monocytes pretreated, then LPS; versus positive control
# Experimental: FIG. 9 is a graph depicting the effect of progesterone and progesterone metabolites (16αOHP and 6β-OHP) on inflammation in THP-1 monocytes stimulated with LPS.
# In this Example, the effect of progesterone and progesterone metabolites (16αOHP and 6β-OHP) on inflammation in THP-1 monocytes stimulated with LPS was analyzed.
# [3] = tested on: primary uterine smooth muscle cells (UtSMC); assay: IL-6 production in UtSMC stimulated with TNF-α; format: cell-based
# Excerpt: FIGS. 5A & 5B are graphs depicting the effect of progesterone metabolites 16αOHP and 6β-OHP on inflammation in primary uterine smooth muscle cells (UtSMC).
# [4] = tested on: uterine horns from wild-type (WT) C57BL/6J female mice; assay: Oxytocin-induced uterine contractility after progestin pretreatment, isolated uterine horns in tissue organ bath; conditions: for EC50: oxytocin-induced dose-response (1-100 nmol/L oxytocin) after progestin pretreatment 10^-6 mol/L
# Experimental: (§1) FIGS. 2A & 2B are representative contraction tracings of uterine horns from wild-type (WT) C57BL/6J female mice. FIG. 2A: Uterine horns were isolated and suspended in a tissue organ bath at 0.5 g of tension. Once equilibrated, selected progestin treatments were added in successively increasing concentrations from 10^−9 to 10^−6 mol/L in 20-minute intervals to assess effect on spontaneous contractile activity (progesterone treatment, bottom panel). The contralateral horn from each mouse was treated with a matching ethanol vehicle (top panel). All contraction responses were measured and reported as the area under the contraction curve (AUC), normalized to the AUC of the spontaneous contraction pattern that preceded treatment. FIG. 2B: Treatment effect on oxytocin-induced contractility was assessed by exposing horns to selected progestin treatments (10^−6 mol/L), followed by increasing doses of oxytocin (Oxt) (1, 10, 50, and 100 nmol/L) in 10-minute intervals (bottom panel). The contralateral horn from each mouse was treated with a matching ethanol vehicle (top panel). Contraction responses were measured and reported as described above.
# (§2) All progestins were solubilized in ethanol and then diluted in phosphate-buffered saline to the desired molar concentration. […] The concentration of ethanol decreased parallel to the progestin dose in order to minimize the effect of the solvent on uterine contractility.
# (§3) Virgin nonpregnant wild-type C57BL/6J female mice (Jackson Labs, Bar Harbor, Me.) were obtained at 10 to 12 weeks of age and fed a standard diet. Mice were euthanized by an IACUC-approved protocol, and each of the 2 uterine horns were removed. A 1 cm×0.5 cm segment of the uterine horn was suspended using 4-0 silk suture between a stainless steel wire hook connected to a Radnoti force displacement transducer (Radnoti LLC, Monrovia, Calif.) and a glass hook inside an organ bath that served as an anchor. The bath was filled with modified Krebs buffer (118 mmol/L NaCl, […], 1.2 mmol/L MgSO4, 1.2 mmol/L KH2PO4, 2.5 mmol/L CaCl2, 25 mmol/L NaHCO3, and 11 mmol/L glucose, pH 7.4), maintained at 37° C., and constantly bubbled with a premixed gas consisting of 20% O2, 5% CO2, and balance N2. Uterine horns were equilibrated at 0.5 g of tension for approximately 30 minutes until a spontaneous contraction pattern was established.
# To determine the nongenomic effect of progestin treatments on oxytocin-induced uterine contractility, the uterine horns were pretreated with a single progestin at 10^−6 mol/L for 10 minutes after a spontaneous contractile pattern was established. The contralateral horn from the same mouse was treated with ethanol vehicle at a matching concentration. The uterine horns were subsequently exposed to increasing concentrations of oxytocin (1, 10, 50, and 100 nmol/L) in 10-minute intervals. At the end of the oxytocin treatments, the tissue was washed and then exposed to KCl (60 mmol/L) to elicit a tetanic response and confirm tissue viability.
# Uterine contraction responses were recorded using LabChart Pro (ADInstruments, Colorado Springs, Colo.) software as the force generated with time (g×min). Baseline uterine contractility was calculated as the area under the curve (AUC) for a 10-minute period of spontaneous contractions. The AUC of the uterine contractile response to each treatment (progestin or oxytocin) was determined and expressed as a percentage of the baseline AUC observed during spontaneous contraction. […] To account for repeated measurements for individual muscle strips at increasing treatment doses, a repeated measures 2-way analysis of variance model was used to compare the dose-response curves. Each dose-response curve was fit by nonlinear regression and compared using an extra sum of squares F test. The mean max-fit response was compared between each progestin and vehicle control to determine maximum treatment efficacy. […]
# [5] = tested on: primary uterine smooth muscle cells (UtSMC); assay: IL-6 production in UtSMC stimulated with LPS; format: cell-based; conditions: UtSMC pre-treated, then LPS
# Experimental: In this Example, the effect of progesterone metabolites 16αOHP and 6β-OHP on inflammation in primary uterine smooth muscle cells (UtSMC) was analyzed.
# UtSMC were cultured in the presence of DMSO and one of the following: (1) progesterone; (2) […]; (3) 6β-OHP; and (4) 16αOHP. Lipopolysaccharide (LPS) was then added to the culture to stimulate an immune inflammatory reaction. Experiments were performed in triplicate.
# [6] = tested on: uterine horns from wild-type (WT) C57BL/6J female mice; assay: Spontaneous uterine contractility, isolated uterine horns in tissue organ bath; conditions: for IC50: spontaneous, dose-response 10^-9 to 10^-6 mol/L
# Experimental: as §1, §2, §3
# A total of 60 mice were utilized to assess the effect of the selected treatments on uterine contractility, 30 in the spontaneous contraction group and 30 in the oxytocin-induced group. Six mice were in each progestin treatment group during both spontaneous and oxytocin-induced contractility arms of the study. To determine the nongenomic (acute) effect of the progestin treatments on spontaneous uterine contractility, a segment of uterine horn from each mouse was exposed to a single progestin (progesterone, 17-OHPC, 2α-OHP, 6β-OHP, or 16αOHP), while a segment of the contralateral horn was exposed to a matching dose of ethanol vehicle. After a spontaneous contraction pattern was achieved, the progestin treatment was added to the tissue organ bath in successively increasing concentrations from 10^−9 to 10^−6 mol/L in 20-minute intervals. At the end of the treatments, the tissue was washed in modified Krebs buffer and then exposed to KCl (60 mmol/L) to elicit a tetanic response and confirm tissue viability.
# Uterine contraction responses were recorded using LabChart Pro (ADInstruments, Colorado Springs, Colo.) software as the force generated with time (g×min). Baseline uterine contractility was calculated as the area under the curve (AUC) for a 10-minute period of spontaneous contractions. The AUC of the uterine contractile response to each treatment (progestin or oxytocin) was determined and expressed as a percentage of the baseline AUC observed during spontaneous contraction. […]
# [7] = tested on: THP-1 monocyte cells; assay: Flow cytometry of monocyte-derived macrophage population (PMA differentiation); format: cell-based; conditions: THP-1 pre-treated 24 hours, then PMA
# Experimental: FIGS. 6A-6C depict flow cytometry of a monocyte-derived macrophage population pre-treated with progesterone metabolites. THP-1 monocyte cells were pre-treated with progesterone metabolites 16αOHP and 6β-OHP for 24 hours, then stimulated to differentiate to macrophages by exposure to PMA.
# THP-1 monocyte cells were pre-treated with progesterone metabolites 16αOHP and 6β-OHP for 24 hours, then stimulated to differentiate to macrophages by exposure to phorbol 12-myristate 13-acetate (PMA).
# [8] = tested on: CYP3A; assay: CYP3A production of 16α-OHP and 6β-OHP in human liver microsomes (HLMs); conditions: p<0.01
# [9] = maximal oxytocin dose (100 nmol/L)
# [10] = oxytocin-induced, progestin pretreatment 10^-6 mol/L, maximal oxytocin dose (100 nmol/L)
structure (smiles),measurement,setting,value
"CC(=O)[C@H]1CC[C@H]2[C@@H]3C[C@@H](O)C4=CC(=O)CC[C@]4(C)[C@H]3CC[C@]12C [6β-OHP, 4-pregnen-6β-ol-3,20-dione]",Production of metabolite in human liver microsomes (in words),[1],favored
same,Inflammatory response (IL-6 production) (in words),[2],significantly decreased IL-6 production
same,IL-6 production (in words),[3],decreased IL-6 production
same,Effect on oxytocin-induced uterine contractility (in words),[4],increase
same,Oxytocin-induced contractile force compared to vehicle control (in words),[4]; [9],no differences
same,Oxytocin-induced contraction frequency compared to control (in words),[4]; [9],decreased significantly
same,EC50,[4]; read-out: Contractile Force EC50,20.9 nM
same,EC50,[4]; read-out: Contractile Frequency EC50,12.8 nM
same,"Contractile Force (% of baseline), Drug",[4]; [10],267.6% of baseline
same,"Contractile Frequency/10 min (% of baseline), Drug",[4]; [10],196.1% of baseline
same,"Contractile Frequency/10 min (% of baseline), Drug","[4]; oxytocin-induced, progestin pretreatment 10^-6 mol/L, maximal oxytocin dose (100 nmol/L), listed as 6β-hydroxyprogesterone",196 % of baseline
same,IL-6,[5]; LPS positive control 121.7 pg/mL,125.4 pg/mL
same,"IL-6, % of positive control",[5]; relative to DMSO+LPS positive control,102%
same,Spontaneous contractile force compared with the vehicle control (in words),[6]; maximal treatment dose,No significant difference
same,Spontaneous uterine contraction frequency compared to vehicle control (in words),[6]; maximal treatment dose,not significantly decreased
same,"Contractile Frequency/10 min (% of baseline), Drug","[6]; spontaneous contractility, maximal treatment dose",46.2% of baseline
same,"Contractile Force (% of baseline), Drug","[6]; spontaneous contractility, maximal treatment dose, AUC as % of baseline AUC",45% of baseline
same,IC50,[6]; read-out: Contractile Force IC50,0.48 nM
same,IC50,[6]; read-out: Contractile Frequency IC50,4.1 nM
same,Macrophage population/phenotype compared to DMSO treated control (in words),[7],decrease in the macrophage population/phenotype
same,"Macrophages, % of the total population",[7]; DMSO control 77%,52%
CC(=O)N1CCN(c2ccc(OCC3COC(Cn4ccnc4)(c4ccc(Cl)cc4Cl)O3)cc2)CC1 (stereo not shown) [ketoconazole],Effect on CYP3A production of 16α-OHP and 6β-OHP,[8],inhibited
